The target in assay [1] is purified class A, C and D enzymes (Enterobacter cloacae, UniProt P05364). Type of assay: biochemical. Particulars: purified P99/AmpC of ECL; nitrocefin reporter substrate.
For assay [2], the target named is T1, purified class A, C and D enzymes (UniProt Q6XEC0).
T1 construct: rows headed: Ki (OXA-48, NCF); other: purified OXA-48; nitrocefin reporter substrate
Type of assay: biochemical. Particulars: read-out: Ki (OXA-48, NCF); purified OXA-48; nitrocefin reporter substrate.

The target in assay [3] is T2, purified class A, C and D enzymes (UniProt P0AD64, L31Q/G234S/E235K, species not given).
T2 construct: Ki (SHV-12, NCF); other: purified SHV-12; nitrocefin reporter substrate
T2 sequence (P0AD64 1-286 L31Q/G234S/E235K): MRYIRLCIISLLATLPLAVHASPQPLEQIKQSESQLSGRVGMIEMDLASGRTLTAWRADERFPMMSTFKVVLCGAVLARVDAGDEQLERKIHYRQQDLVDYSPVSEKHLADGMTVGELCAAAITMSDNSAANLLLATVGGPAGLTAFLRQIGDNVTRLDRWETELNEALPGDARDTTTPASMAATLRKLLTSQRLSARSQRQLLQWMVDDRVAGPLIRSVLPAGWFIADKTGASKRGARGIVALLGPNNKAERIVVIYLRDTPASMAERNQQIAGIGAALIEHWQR
Type of assay: biochemical. The following applies: read-out: Ki (SHV-12, NCF); purified SHV-12; nitrocefin reporter substrate.

The target in assay [4] is T3, purified class A, C and D enzymes (UniProt Q9F663).
T3 construct: rows headed: Ki (KPC-2, NCF); other: purified KPC-2; nitrocefin reporter substrate
The assay is classed as biochemical. Particulars: read-out: Ki (KPC-2, NCF); purified KPC-2; nitrocefin reporter substrate.

Assay [5] has as its target purified class A, C and D enzymes (Escherichia coli, UniProt Q9L5C7). The assay is classed as biochemical. Particulars: purified CTX-M-14; nitrocefin reporter substrate.
Assay [6] has as its target T4, NDM-1 (Klebsiella pneumoniae, UniProt C7C422). Description: biochemical. The following applies: cleavage of imipenem (100 uM) by NDM-1; read-out: Ki, Imipenem.
Assay [7] deals with T4, NDM-1. Briefly: Inhibition of purified class B carbapenemase NDM-1 (Ki, imipenem substrate). Type of assay: biochemical. The following applies: NDM-1, substrate imipenem; read-out: Ki NDM-1, Imipenem.
For the next assay, the target named is T5, VIM-1 (Pseudomonas aeruginosa, UniProt A0A0F7KYQ8).
T5 construct: made in house; host or cells: ECM6711 strain carrying pUCP24-VIM-1 plasmid; culture supernatant used unpurified
Briefly: biochemical. The following applies: cleavage of nitrocefin (200 uM) by VIM-1 supernatant.

Sequence of purified class A, C and D enzymes (Escherichia coli, UniProt Q9L5C7) (Q9L5C7 entry or part of it): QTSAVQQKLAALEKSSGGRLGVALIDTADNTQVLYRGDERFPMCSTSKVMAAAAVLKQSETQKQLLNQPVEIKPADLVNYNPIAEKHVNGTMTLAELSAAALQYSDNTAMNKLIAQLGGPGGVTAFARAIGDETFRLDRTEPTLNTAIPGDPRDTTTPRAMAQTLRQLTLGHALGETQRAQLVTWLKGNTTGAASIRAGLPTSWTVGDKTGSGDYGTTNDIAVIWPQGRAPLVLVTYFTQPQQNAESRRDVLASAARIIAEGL
Sequence of purified class A, C and D enzymes (Enterobacter cloacae, UniProt P05364) (P05364 21-381): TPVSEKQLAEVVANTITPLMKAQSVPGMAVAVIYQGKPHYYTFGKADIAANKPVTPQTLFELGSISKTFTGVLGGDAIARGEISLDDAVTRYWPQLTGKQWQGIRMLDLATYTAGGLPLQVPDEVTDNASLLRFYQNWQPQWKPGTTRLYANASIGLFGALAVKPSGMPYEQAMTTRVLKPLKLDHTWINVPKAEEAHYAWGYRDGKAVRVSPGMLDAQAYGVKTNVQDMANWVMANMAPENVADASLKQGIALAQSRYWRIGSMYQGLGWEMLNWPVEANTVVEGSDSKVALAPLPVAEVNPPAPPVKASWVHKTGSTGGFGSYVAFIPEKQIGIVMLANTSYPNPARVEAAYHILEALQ
T4 sequence (C7C422 29-270, looked up, species assumed): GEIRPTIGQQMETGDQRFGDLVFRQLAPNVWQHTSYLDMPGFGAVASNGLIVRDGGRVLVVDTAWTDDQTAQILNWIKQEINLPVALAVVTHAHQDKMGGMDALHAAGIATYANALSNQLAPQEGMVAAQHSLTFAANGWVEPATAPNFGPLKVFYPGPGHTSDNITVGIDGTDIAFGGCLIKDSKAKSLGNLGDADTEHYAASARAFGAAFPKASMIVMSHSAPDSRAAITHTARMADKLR

`COc1ccc2c(c1C(=O)O)OB(O)[C@@H](Sc1nncn1N)C2` [Compound 26, (R)-3-(4-amino-4H-1,2,4-triazol-3-ylthio)-2-hydroxy-7-methoxy-3,4-dihydro-2H-benzo[e][1,2]oxaborinine-8-carboxylic acid]: the “Ki (P99/AmpC of ECL, NCF)” value in assay [1] is “Y (0.1 μM to 1 μM)”. For the same compound, the Ki – broadly, a measure of affinity in units of concentration, obtained from inhibition or displacement – in assay [2] is less than 0.1 µM; in assay [3], less than 0.1 µM; in assay [4], 0.1 to 1 µM; on NDM-1 [6], less than 0.01 µM; at NDM-1 [7] it was less than 0.01 µM. The “Ki (CTX-M-14, NCF)” value in assay [5] is reported as “X (Less than 0.1 μM)”. The IC50 (in general, the concentration that gives 50% inhibition) at VIM-1 was less than 1 µM.
Take `COc1ccc2c(c1C(=O)O)OB(O)[C@@H](Sc1nncn1C)C2` [Compound 28, (R)-2-hydroxy-7-methoxy-3-(4-methyl-4H-1,2,4-triazol-3-ylthio)-3,4-dihydro-2H-benzo[e][1,2]oxaborinine-8-carboxylic acid]: in assay [1], the “Ki (P99/AmpC of ECL, NCF)” value is “Y (0.1 μM to 1 μM)”. Further, the inhibitory constant (Ki) in assay [2] is less than 0.1 µM; in assay [3], less than 0.1 µM; in assay [4], 0.1 to 1 µM; at NDM-1 [6], less than 0.01 µM; at NDM-1 [7], less than 0.01 µM. For the same compound, the “Ki (CTX-M-14, NCF)” value in assay [5] is listed as “X (Less than 0.1 μM)”. The same compound came in with an IC50 at VIM-1 of less than 1 µM.
Take `CSc1ccc2c(c1C(=O)O)OB(O)[C@@H](Sc1nncn1C)C2` [Compound 29, (R)-2-hydroxy-3-(4-methyl-4H-1,2,4-triazol-3-ylthio)-7-(methylthio)-3,4-dihydro-2H-benzo[e][1,2]oxaborinine-8-carboxylic acid]: the “Ki (P99/AmpC of ECL, NCF)” value in assay [1] is listed as “Y (0.1 μM to 1 μM)”. Also, the Ki in assay [2] is less than 0.1 µM; in assay [3] it was less than 0.1 µM; in assay [4], 0.1 to 1 µM; on NDM-1 [6], 0.01 to 0.1 µM; at NDM-1 [7], 0.01 to 0.1 µM. The “Ki (CTX-M-14, NCF)” value in assay [5] is listed as “X (Less than 0.1 μM)”. The IC50 against VIM-1 is less than 1 µM.
With `Cc1ccc2c(c1C(=O)O)OB(O)[C@@H](Sc1nnc(N)s1)C2` [Compound 31, (R)-3-(5-amino-1,3,4-thiadiazol-2-ylthio)-2-hydroxy-7-methyl-3,4-dihydro-2H-benzo[e][1,2]oxaborinine-8-carboxylic acid], the “Ki (P99/AmpC of ECL, NCF)” value in assay [1] is “Y (0.1 μM to 1 μM)”. Also, the Ki in assay [2] was less than 0.1 µM; in assay [3] it was less than 0.1 µM; in assay [4] it was 0.1 to 1 µM; at NDM-1 [6], greater than 0.1 µM; on NDM-1 [7] it was greater than 0.1 µM. Also, the “Ki (CTX-M-14, NCF)” value in assay [5] is “X (Less than 0.1 μM)”. The same compound returned an IC50 on VIM-1 of no less than 1 µM.
Take `COc1cc(OC)c(C(=O)O)c2c1C[C@H](Sc1nnc(N)s1)B(O)O2` [Compound 32, (R)-3-(5-amino-1,3,4-thiadiazol-2-ylthio)-2-hydroxy-5,7-dimethoxy-3,4-dihydro-2H-benzo[e][1,2]oxaborinine-8-carboxylic acid]: the “Ki (P99/AmpC of ECL, NCF)” value in assay [1] is on record as “X (Less than 0.1 μM)”. For the same compound, the inhibition constant (Ki) is less than 0.1 µM in assay [2]; less than 0.1 µM in assay [3]; less than 0.1 µM in assay [4]; 0.01 to 0.1 µM on NDM-1 [6]; 0.01 to 0.1 µM on NDM-1 [7]. For the same compound, in assay [5], the “Ki (CTX-M-14, NCF)” value is “X (Less than 0.1 μM)”. For the same compound, the IC50 on VIM-1 is no less than 1 µM.
As for `Nc1nnc(S[C@H]2Cc3c(F)cc(F)c(C(=O)O)c3OB2O)s1` [Compound 33, (R)-3-(5-amino-1,3,4-thiadiazol-2-ylthio)-5,7-difluoro-2-hydroxy-3,4-dihydro-2H-benzo[e][1,2]oxaborinine-8-carboxylic acid], the “Ki (P99/AmpC of ECL, NCF)” value in assay [1] is reported as “X (Less than 0.1 μM)”. The inhibition constant (Ki) in assay [2] is less than 0.1 µM; in assay [3], less than 0.1 µM; in assay [4] it was 0.1 to 1 µM; at NDM-1 [6], greater than 0.1 µM; on NDM-1 [7] it was 0.01 to 0.1 µM. Moreover, in assay [5], the “Ki (CTX-M-14, NCF)” value is given as “X (Less than 0.1 μM)”. In addition, on VIM-1, the IC50 is no less than 1 µM.
On to `C[S+]([O-])c1ccc2c(c1C(=O)O)OB(O)[C@@H](Sc1nnc(N)s1)C2` (stereo partly drawn) [Compound 34, (3R)-3-(5-amino-1,3,4-thiadiazol-2-ylthio)-2-hydroxy-7-(methylsulfinyl)-3,4-dihydro-2H-benzo[e][1,2]oxaborinine-8-carboxylic acid], for which the “Ki (P99/AmpC of ECL, NCF)” value in assay [1] is “X (Less than 0.1 μM)”. Further, the Ki is less than 0.1 µM in assay [2]; less than 0.1 µM in assay [3]; 0.1 to 1 µM in assay [4]; 0.01 to 0.1 µM at NDM-1 [6]; 0.01 to 0.1 µM on NDM-1 [7]. In assay [5], the “Ki (CTX-M-14, NCF)” value is on record as “X (Less than 0.1 μM)”. Also, on VIM-1, the IC50 was less than 1 µM.
Regarding `COCc1ccc2c(c1C(=O)O)OB(O)[C@@H](Sc1nnc(N)s1)C2` [Compound 35, (R)-3-(5-amino-1,3,4-thiadiazol-2-ylthio)-2-hydroxy-7-(methoxymethyl)-3,4-dihydro-2H-benzo[e][1,2]oxaborinine-8-carboxylic acid], the “Ki (P99/AmpC of ECL, NCF)” value in assay [1] is reported as “Y (0.1 μM to 1 μM)”. Also, the inhibition constant (Ki) in assay [2] is less than 0.1 µM; in assay [3] it was less than 0.1 µM; in assay [4], less than 0.1 µM; at NDM-1 [6] it was 0.01 to 0.1 µM; at NDM-1 [7], 0.01 to 0.1 µM. Moreover, the “Ki (CTX-M-14, NCF)” value in assay [5] was “X (Less than 0.1 μM)”. Also, the IC50 against VIM-1 was less than 1 µM.
Consider `Nc1nnc(S[C@H]2Cc3ccc(Cl)c(C(=O)O)c3OB2O)s1` [Compound 36, (R)-3-(5-amino-1,3,4-thiadiazol-2-ylthio)-7-chloro-2-hydroxy-3,4-dihydro-2H-benzo[e][1,2]oxaborinine-8-carboxylic acid], for which, in assay [1], the “Ki (P99/AmpC of ECL, NCF)” value was “Z (Greater than 1 μM)”. Also, the inhibitory constant (Ki) in assay [2] was less than 0.1 µM; in assay [3], less than 0.1 µM; in assay [4], less than 0.1 µM; on NDM-1 [6], 0.01 to 0.1 µM; on NDM-1 [7], 0.01 to 0.1 µM. Besides, the “Ki (CTX-M-14, NCF)” value in assay [5] was “X (Less than 0.1 μM)”. The IC50 against VIM-1 was no less than 1 µM.
For `Nc1nnc(S[C@H]2Cc3cc(F)c(F)c(C(=O)O)c3OB2O)s1` [Compound 37, (R)-3-(5-amino-1,3,4-thiadiazol-2-ylthio)-6,7-difluoro-2-hydroxy-3,4-dihydro-2H-benzo[e][1,2]oxaborinine-8-carboxylic acid], the “Ki (P99/AmpC of ECL, NCF)” value in assay [1] was “Z (Greater than 1 μM)”. In addition, the inhibition constant Ki in assay [2] is less than 0.1 µM; in assay [3] it was less than 0.1 µM; in assay [4], less than 0.1 µM; at NDM-1 [6], 0.01 to 0.1 µM; on NDM-1 [7] it was 0.01 to 0.1 µM. In addition, the “Ki (CTX-M-14, NCF)” value in assay [5] was “X (Less than 0.1 μM)”. At VIM-1, this compound yielded a half-maximal inhibitory concentration (IC50) of no less than 1 µM.
For the compound `Nc1nnc(S[C@H]2Cc3c(F)c(F)c(F)c(C(=O)O)c3OB2O)s1` [Compound 38, (R)-3-(5-amino-1,3,4-thiadiazol-2-ylthio)-5,6,7-trifluoro-2-hydroxy-3,4-dihydro-2H-benzo[e][1,2]oxaborinine-8-carboxylic acid], in assay [1], the “Ki (P99/AmpC of ECL, NCF)” value is recorded as “Y (0.1 μM to 1 μM)”. The Ki in assay [2] is less than 0.1 µM; in assay [3], less than 0.1 µM; in assay [4] it was greater than 1 µM; on NDM-1 [6] it was greater than 0.1 µM; on NDM-1 [7], greater than 0.1 µM. In addition, in assay [5], the “Ki (CTX-M-14, NCF)” value was “X (Less than 0.1 μM)”. The compound further returned a concentration for half-maximal inhibition (IC50) at VIM-1 of no less than 1 µM.
For `COc1ccc2c(c1C(=O)O)OB(O)[C@@H](Sc1c[nH]nn1)C2` [Compound 39, (R)-3-(1H-1,2,3-triazol-4-ylthio)-2-hydroxy-7-methoxy-3,4-dihydro-2H-benzo[e][1,2]oxaborinine-8-carboxylic acid], in assay [1], the “Ki (P99/AmpC of ECL, NCF)” value is “Y (0.1 μM to 1 μM)”. The Ki in assay [2] was less than 0.1 µM; in assay [3], less than 0.1 µM; in assay [4], less than 0.1 µM; on NDM-1 [6], greater than 0.1 µM; at NDM-1 [7] it was greater than 0.1 µM. Moreover, the “Ki (CTX-M-14, NCF)” value in assay [5] is “X (Less than 0.1 μM)”. The same compound yielded an IC50 on VIM-1 of less than 1 µM.
For the compound `COc1ccc2c(c1C(=O)O)OB(O)[C@@H](Sc1ncn(CCCC(=O)O)n1)C2` [Compound 40, (R)-3-(1-(3-carboxypropyl)-1H-1,2,4-triazol-3-ylthio)-2-hydroxy-7-methoxy-3,4-dihydro-2H-benzo[e][1,2]oxaborinine-8-carboxylic acid], in assay [1], the “Ki (P99/AmpC of ECL, NCF)” value was “X (Less than 0.1 μM)”. The Ki in assay [2] was less than 0.1 µM; in assay [3], less than 0.1 µM; in assay [4] it was less than 0.1 µM; on NDM-1 [6], greater than 0.1 µM; at NDM-1 [7], greater than 0.1 µM. For the same compound, the “Ki (CTX-M-14, NCF)” value in assay [5] was “X (Less than 0.1 μM)”. The IC50 against VIM-1 is no less than 1 µM.

These data come from patent publication US10206937B2, “Boronic acid derivatives and therapeutic uses thereof” (Qpex Biopharma, Inc., priority 2014, dated 2019).
